Assay results reported in patent US9062041B2 (Bayer Intellectual Property GmbH, priority 2011, dated 2015).

Columns and labels:
Format in all cases: cell-based
[1] = target: EP2 subtype of the human PGE2 receptor (Homo sapiens, UniProt P43116); experiment: cAMP antagonism test on the human EP2 receptor (HTRF cAMP detection); conditions: hEP2 receptor, read-out: Antagonism hEP2 IC50
How it was run: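 Cells expressing human EP2 preincubated 20 min at RT with compound (0.8 nM–16.5 μM), then stimulated 60 min with PGE2 (3× solution 1.5 nM) in PBS-IBMX. After 20 min lysis, cAMP measured by competitive HTRF with cAMP-d2 and Eu cryptate anti-cAMP antibody (665/620 nm ratio).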

human PGD receptor = target: T1, human PGD receptor (Homo sapiens, UniProt Q13258); experiment: cAMP antagonism test on the human prostaglandin D receptor (HTRF cAMP detection); conditions: selectivity towards hDP, IC50 measured by cAMP antagonism test
T1 sequence (Q13258 1-359): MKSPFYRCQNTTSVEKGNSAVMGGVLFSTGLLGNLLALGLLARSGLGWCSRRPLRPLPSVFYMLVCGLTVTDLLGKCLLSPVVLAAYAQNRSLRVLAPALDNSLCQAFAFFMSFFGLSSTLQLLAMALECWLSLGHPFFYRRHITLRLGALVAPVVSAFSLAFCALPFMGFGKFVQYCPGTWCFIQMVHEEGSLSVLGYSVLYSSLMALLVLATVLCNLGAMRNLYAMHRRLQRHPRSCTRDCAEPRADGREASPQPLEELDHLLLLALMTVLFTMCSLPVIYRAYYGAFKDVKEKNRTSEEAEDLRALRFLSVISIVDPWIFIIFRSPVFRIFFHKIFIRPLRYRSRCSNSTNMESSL
How it was run: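 Cells pre-mixed with cAMP-d2 were preincubated with compound (0.8 nM–16.5 μM) for 20 min at RT, then stimulated with 3× PGD2 solution (6 nM, in PBS-IBMX) for 30 min at RT. After lysis (20 min), HTRF read at 665/620 nm; antagonism seen as rise in FRET ratio.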

[2] = target: EP4 subtype of the human PGE2 receptor (Homo sapiens, UniProt P35408); experiment: cAMP antagonism test on the human EP4 receptor (HTRF cAMP detection); conditions: selectivity towards hEP4, IC50 measured by cAMP antagonism test
Sequence of EP4 subtype of the human PGE2 receptor (P35408 whole entry): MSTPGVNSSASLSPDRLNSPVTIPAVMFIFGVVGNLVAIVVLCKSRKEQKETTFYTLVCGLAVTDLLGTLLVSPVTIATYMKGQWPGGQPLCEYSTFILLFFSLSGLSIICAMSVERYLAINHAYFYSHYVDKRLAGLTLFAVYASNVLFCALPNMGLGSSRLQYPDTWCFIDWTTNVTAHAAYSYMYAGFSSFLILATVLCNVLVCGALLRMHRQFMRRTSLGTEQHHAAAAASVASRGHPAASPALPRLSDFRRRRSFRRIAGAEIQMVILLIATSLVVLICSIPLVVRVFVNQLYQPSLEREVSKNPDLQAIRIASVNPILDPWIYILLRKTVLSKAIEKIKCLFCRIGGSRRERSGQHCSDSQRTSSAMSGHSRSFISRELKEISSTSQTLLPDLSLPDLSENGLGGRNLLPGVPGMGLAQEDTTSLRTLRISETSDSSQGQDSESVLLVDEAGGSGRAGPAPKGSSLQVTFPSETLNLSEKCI
How it was run: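 Cells expressing human EP4 preincubated 20 min at RT with compound (0.8 nM–16.5 μM), then stimulated with PGE2 (0.3 nM in 3× solution, with IBMX) 60 min at RT. After lysis, cAMP measured by HTRF competition (665/620 nm ratio); antagonism seen as rise in FRET signal.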

Sequence of EP2 subtype of the human PGE2 receptor (P43116 whole entry): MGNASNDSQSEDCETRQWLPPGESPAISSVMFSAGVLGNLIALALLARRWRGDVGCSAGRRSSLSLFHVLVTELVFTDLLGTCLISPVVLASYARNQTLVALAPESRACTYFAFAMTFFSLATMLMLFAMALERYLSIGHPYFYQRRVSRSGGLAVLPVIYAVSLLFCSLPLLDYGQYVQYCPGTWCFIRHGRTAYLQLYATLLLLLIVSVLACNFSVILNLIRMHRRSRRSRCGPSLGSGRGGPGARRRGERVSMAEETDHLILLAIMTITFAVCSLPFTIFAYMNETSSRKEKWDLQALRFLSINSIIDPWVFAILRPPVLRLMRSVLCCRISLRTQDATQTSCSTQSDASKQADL

Row | SMILES | IC50 [1] [nM] | Selectivity hEP2/hDP (human PGD receptor) | Selectivity hEP2/hEP4 [2]
1 | COCCNC(=O)c1ccc2nn(CC3CCN(C(=O)c4ccc(-c5ccccc5C)cc4)CC3)cc2c1C [Example 50, N-(2-methoxyethyl)-4-methyl-2-({1-[(2′-methylbiphenyl-4-yl)carbonyl]piperidin-4-yl}methyl)-2H-indazol-5-carboxamide] | 3.18 | xxx (xxx > 100) | xxx (xxx > 100)
2 | Cc1cc2nn(CC3CN(C(=O)c4ccc(S(F)(F)(F)(F)F)cc4)C3)cc2cc1C(=O)NCC(F)(F)F [Example 188, 6-methyl-2-({1-[4-(pentafluoro-λ^6-sulphanyl)benzoyl]azetidin-3-yl}methyl)-N-(2,2,2-trifluoroethyl)-2H-indazol-5-carboxamide] | 149 | xxx (xxx > 100) | xxx (xxx > 100)
3 | Cc1cc2nn(CC3CN(C(=O)c4ccc(OC(F)(F)F)cc4)C3)cc2cc1C(=O)NCC(F)(F)F [Example 195, 6-methyl-N-(2,2,2-trifluoroethyl)-2-({1-[4-(trifluoromethoxy)benzoyl]azetidin-3-yl}methyl)-2H-indazol-5-carboxamide] | 227 | xx (xx: 10-100) | xx (xx: 10-100)
4 | Cc1c(C(=O)NCCN2CCOCC2)ccc2nn(CC3CCN(C(=O)c4cccc(OC(F)(F)F)c4)CC3)cc12 [Example 61, 4-methyl-N-(2-morpholinoethyl)-2-({1-[3-(trifluoromethoxy)benzoyl]piperidin-4-yl}methyl)-2H-indazol-5-carboxamide] | 1500 | xx (xx: 10-100) | xx (xx: 10-100)
5 | Cc1c(C(=O)NCC2CCO2)ccc2nn(CC3CCN(C(=O)c4ccc(Cl)cc4)CC3)cc12 (racemic) [Example 412, (+/−)-2-{[1-(4-chlorobenzoyl)piperidin-4-yl]methyl}-4-methyl-N-(oxetan-2-ylmethyl)-2H-indazol-5-carboxamide] | 63.5 | xxx (xxx > 100) | xxx (xxx > 100)
6 | COCCNC(=O)c1cc2cn(CC3CCN(C(=O)c4ccc(C(F)(F)F)c(F)c4)CC3)nc2cc1C [Example 208, 2-({1-[3-fluoro-4-(trifluoromethyl)benzoyl]piperidin-4-yl}methyl)-N-(2-methoxyethyl)-6-methyl-2H-indazol-5-carboxamide] | 80.6 | xxx (xxx > 100) | xxx (xxx > 100)
7 | Cc1ccc(C(=O)N2CCC(Cn3cc4c(C)c(C(=O)NCCOCC5CC5)ccc4n3)CC2)cc1 [Example 85, N-[2-(cyclopropyl-methoxy)ethyl]-4-methyl-2-{[1-(4-methylbenzoyl)-piperidin-4-yl]-methyl}-2H-indazol-5-carboxamide] | 35.5 | xxx (xxx > 100) | xxx (xxx > 100)
8 | COCCNC(=O)c1ccc2nn(CC3CN(C(=O)c4ccc(C(F)(F)F)cc4F)C3)cc2c1OC [Example 255, 2-({1-[2-fluoro-4-(trifluoromethyl)benzoyl]azetidin-3-yl}methyl)-4-methoxy-N-(2-methoxyethyl)-2H-indazol-5-carboxamide] | 83.5 | xxx (xxx > 100) | xxx (xxx > 100)
9 | Cc1ccc(C(=O)N2CCC(Cn3cc4c(C)c(C(=O)NCCOC(C)C)ccc4n3)CC2)cc1 [Example 97, N-(2-isopropoxy-ethyl)-4-methyl-2-{[1-(4-methyl-benzoyl)piperidin-4-yl]methyl}-2H-indazol-5-carboxamide] | 12.7 | xxx (xxx > 100) | xxx (xxx > 100)
10 | COCCNC(=O)c1ccc2nn(C[C@@H]3CCN(C(=O)c4ccc(S(F)(F)(F)(F)F)cc4)C3)cc2c1C [Example 219, N-(2-methoxyethyl)-4-methyl-2-({(3R)-1-[4-(pentafluoro-λ^6-sulphanyl)benzoyl]-pyrrolidin-3-yl}methyl)-2H-indazol-5-carboxamide] | 273 | xx (xx: 10-100) | xx (xx: 10-100)
11 | Cc1c(C(=O)NCC(C)OCC2CC2)ccc2nn(CC3CCN(C(=O)c4ccc(Cl)cc4)CC3)cc12 (racemic) [Example 102, (+/−)-2-{[1-(4-chlorobenzoyl)piperidin-4-yl]methyl}-N-[2-(cyclopropylmethoxy)propyl]-4-methyl-2H-indazol-5-carboxamide] | 410 | xx (xx: 10-100) | xx (xx: 10-100)
12 | COCCNC(=O)c1ccc2nn(CC3CN(C(=O)c4ccc(Oc5ccc(F)cc5)cc4)C3)cc2c1C [Example 159, 2-({1-[4-(4-fluorophenoxy)benzoyl]azetidin-3-yl}methyl)-N-(2-methoxyethyl)-4-methyl-2H-indazol-5-carboxamide] | 6.24 | xxx (xxx > 100) | xxx (xxx > 100)
13 | COc1cccc(-c2ccc(C(=O)N3CCC(Cn4cc5c(C)c(C(=O)NCC(F)(F)F)ccc5n4)CC3)cc2)n1 [Example 323, 2-({1-[4-(6-methoxypyridin-2-yl)benzoyl]piperidin-4-yl}methyl)-4-methyl-N-(2,2,2-trifluoroethyl)-2H-indazol-5-carboxamide] | 128 | xxx (xxx > 100) | xxx (xxx > 100)
14 | COCCNC(=O)c1cc2cn(CC3CCN(C(=O)c4ccc(C(F)(F)F)cc4F)CC3)nc2cc1C [Example 206, 2-({1-[2-fluoro-4-(trifluoromethyl)benzoyl]piperidin-4-yl}methyl)-N-(2-methoxy-ethyl)-6-methyl-2H-indazol-5-carboxamide] | 41.3 | xxx (xxx > 100) | xxx (xxx > 100)

Next, values leading:

Row | IC50 [1] [nM] | Selectivity hEP2/hDP (human PGD receptor) | Selectivity hEP2/hEP4 [2] | SMILES
15 | 5.48 | xxx (xxx > 100) | xxx (xxx > 100) | COCCNC(=O)c1ccc2nn(CC3CCN(C(=O)c4ccc(-c5ccc(C)c(C)c5)cc4F)CC3)cc2c1C [Example 363, 2-({1-[(3-fluoro-3′,4′-dimethylbiphenyl-4-yl)carbonyl]piperidin-4-yl}methyl)-N-(2-methoxyethyl)-4-methyl-2H-indazol-5-carboxamide]
16 | 47.1 | xxx (xxx > 100) | xxx (xxx > 100) | Cc1cc2nn(CC3CN(C(=O)c4ccc(Cl)cc4)C3)cc2cc1C(=O)NCC1CCCCO1 (racemic) [Example 191, (+/−)-2-{[1-(4-chlorobenzoyl)azetidin-3-yl]methyl}-6-methyl-N-(3,4,5,6-tetrahydro-2H-pyran-2-ylmethyl)-2H-indazol-5-carboxamide]
17 | 6.21 | xxx (xxx > 100) | xxx (xxx > 100) | Cc1c(C(=O)NCCOC(C)C)ccc2nn(CC3CCN(C(=O)c4ccc(-c5ccc(F)cc5)cc4)CC3)cc12 [Example 100, 2-({1-[(4′-fluoro-biphenyl-4-yl)-carbonyl]piperidin-4-yl}methyl)-N-(2-isopropoxyethyl)-4-methyl-2H-indazol-5-carboxamide]
18 | 34.5 | xxx (xxx > 100) | xxx (xxx > 100) | CCOc1c(C(=O)NCCOC)ccc2nn(CC3CCN(C(=O)c4ccc(S(F)(F)(F)(F)F)cc4)CC3)cc12 [Example 275, 4-ethoxy-N-(2-methoxyethyl)-2-({1-[4-(pentafluoro-λ^6-sulphanyl)benzoyl]-piperidin-4-yl}methyl)-2H-indazol-5-carboxamide]
19 | 9.47 | xxx (xxx > 100) | xxx (xxx > 100) | COCCNC(=O)c1ccc2nn(CC3CCN(C(=O)c4cn(C)c5ccccc45)CC3)cc2c1C [Example 331, N-(2-methoxyethyl)-4-methyl-2-({1-[(1-methyl-1H-indol-3-yl)carbonyl]-piperidin-4-yl}methyl)-2H-indazol-5-carboxamide]
20 | 48.5 | xxx (xxx > 100) | xxx (xxx > 100) | Cc1ccc(C(=O)N2CC(Cn3cc4c(C)c(C(=O)NCCOCC5CC5)ccc4n3)C2)cc1 [Example 151, N-[2-(cyclopropylmethoxy)ethyl]-4-methyl-2-{[1-(4-methylbenzoyl)azetidin-3-yl]methyl}-2H-indazol-5-carboxamide]
21 | 181 | xx (xx: 10-100) | xx (xx: 10-100) | COc1c(C(=O)NCC(F)(F)F)ccc2nn(CC3CCN(C(=O)c4ccc(Cl)cc4)CC3)cc12 [Example 263, 2-{[1-(4-chlorobenzoyl)piperidin-4-yl]methyl}-4-methoxy-N-(2,2,2-trifluoro-ethyl)-2H-indazol-5-carboxamide]
